Measured values taken from ChEMBL document CHEMBL4373645, “Recent development of leucyl-tRNA synthetase inhibitors as antimicrobial agents” (Medchemcomm, 2019).
≈ marks a conversion by molar mass, not a printed value.

Legend:
Trypanosoma brucei = test: Inhibition of Trypanosoma brucei LeuRS assessed as residual activity at 100 uM incubated for 5 mins in presence of [14C]leucine by scintillation counting method relative to control
[1] = Inhibition of Trypanosoma brucei LeuRS presence of [14C]leucine by scintillation counting method
[2] = system: Mycobacterium tuberculosis; test: Antitubercular activity against Mycobacterium tuberculosis H37Rv by time-kill assay; type: functional
Streptococcus pneumoniae = test: Antibacterial activity against Streptococcus pneumoniae assessed as the reduction in bacterial growth incubated for 24 hrs by dilution antimicrobial susceptibility test; type: functional
[3] = Inhibition of human LeuRS after 10 mins in presence of [3H]leucine by scintillation counting method
[4] = Inhibition of Trypanosoma brucei LeuRS preincubated for 20 mins followed by ATP addition measured after 15 mins in presence of [14C]leucine by scintillation counting method
[5] = Selectivity index, ratio of IC50 for human cytoplasmic LeuRS to IC50 for Trypanosoma brucei LeuRS
Leucine--tRNA ligase = Leucine--tRNA ligase (Escherichia coli (strain K12), UniProt P07813); test: Binding affinity to Escherichia coli LeuRS
Chain of Leucine--tRNA ligase (P07813 whole entry): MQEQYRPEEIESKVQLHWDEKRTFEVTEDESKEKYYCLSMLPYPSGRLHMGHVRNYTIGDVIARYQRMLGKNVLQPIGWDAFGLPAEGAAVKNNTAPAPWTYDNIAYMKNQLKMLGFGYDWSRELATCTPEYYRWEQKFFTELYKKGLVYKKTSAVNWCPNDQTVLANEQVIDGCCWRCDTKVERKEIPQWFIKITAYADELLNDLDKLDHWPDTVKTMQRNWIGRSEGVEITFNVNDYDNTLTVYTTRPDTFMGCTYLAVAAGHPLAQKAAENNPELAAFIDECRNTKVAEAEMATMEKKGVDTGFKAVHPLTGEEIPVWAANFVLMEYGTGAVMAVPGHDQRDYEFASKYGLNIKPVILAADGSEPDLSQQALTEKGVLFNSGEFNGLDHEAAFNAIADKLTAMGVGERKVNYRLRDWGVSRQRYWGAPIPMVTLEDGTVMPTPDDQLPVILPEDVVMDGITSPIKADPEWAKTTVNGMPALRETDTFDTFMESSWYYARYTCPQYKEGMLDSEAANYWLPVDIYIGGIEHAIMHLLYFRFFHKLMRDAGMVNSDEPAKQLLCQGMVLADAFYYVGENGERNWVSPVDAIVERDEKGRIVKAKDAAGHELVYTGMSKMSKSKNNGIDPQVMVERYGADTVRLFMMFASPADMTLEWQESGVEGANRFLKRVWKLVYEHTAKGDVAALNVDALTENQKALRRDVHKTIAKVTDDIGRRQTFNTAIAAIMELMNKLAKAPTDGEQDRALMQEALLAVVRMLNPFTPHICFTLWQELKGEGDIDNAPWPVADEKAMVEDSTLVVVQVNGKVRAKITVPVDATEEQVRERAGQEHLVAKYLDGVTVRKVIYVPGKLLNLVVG

Compound: Cc1n[nH]c(=O)nc1Nc1cc(Cl)ccc1O
- Activity (Trypanosoma brucei): 2.3%
- IC50 [1]: 7.6 µM

Compound: OB1OCc2ccccc21 [BENZOXABOROLE]
- MIC [2]: 7.5 µg/mL (≈ 56 µM)

Compound: OB1OCc2ccc(C(O)c3ccccc3)cc21 (stereo not drawn)
- MIC (Streptococcus pneumoniae): 5 µg/mL (≈ 20.8 µM)

Compound: COc1ccc(C(=O)NC(=S)Nc2cccc(S(=O)(=O)NC(=O)[C@@H](N)CC(C)C)c2)cc1
- IC50 [3]: 33.9 µM
- IC50 [4]: 5.6 µM
- Ratio IC50 [5]: 4.5 to 7.3

Compound: CC(C)C[C@H](N)C(=O)NS(=O)(=O)c1cccc(NC(=S)NC(=O)COc2ccc(Br)cc2Cl)c1
- IC50 [3]: 4.9 µM
- IC50 [4]: 1.1 µM
- Ratio IC50 [5]: 4.5 to 7.3

Compound: Cc1cc(-c2cccc(S(=O)(=O)CC(=O)[C@@H](N)CC(C)C)c2)ncn1
- Kd (Leucine--tRNA ligase): 0.0014 µM

Compound: COc1cccc(C(=O)NC(=S)Nc2cccc(S(=O)(=O)NC(=O)[C@@H](N)CC(C)C)c2)c1
- IC50 [3]: 40 µM
- IC50 [4]: 6.7 µM
- Ratio IC50 [5]: 4.5 to 7.3

Compound: NCC1OB(O)c2ccccc21 (stereo not drawn)
- MIC [2]: 1.8 µg/mL (≈ 11 µM)

Compound: CC(C)C[C@H](N)C(=O)NS(=O)(=O)c1cccc(NC(=S)NC(=O)c2ccccc2)c1
- IC50 [3]: 55.5 µM
- IC50 [4]: 7.6 µM
- Ratio IC50 [5]: 4.5 to 7.3

Compound: O=C(COc1ccc(Br)cc1Cl)NC(=S)Nc1cccc(S(=O)(=O)NC(=O)[C@H](Cc2ccccc2)NC(=O)OCc2ccccc2)c1
- IC50 [4]: 13.7 µM

Compound: CC(C)C[C@H](NC(=O)OCc1ccccc1)C(=O)NS(=O)(=O)c1cccc(NC(=S)NC(=O)COc2ccc(Br)cc2Cl)c1
- IC50 [4]: 16.7 µM

Compound: O=c1nc(Nc2cc(Cl)ccc2O)cn[nH]1
- Activity (Trypanosoma brucei): 18%
- IC50 [1]: 7.2 µM

Compound: NS(=O)(=O)c1ccc(NC(=S)NC(=O)COc2ccc(Br)cc2Cl)cc1
- IC50 [4]: 174 µM
